This assay deals with HLA-A2.1. In words: Pulse-chase of HLA-A2.1 maturation and turnover in transfected HeLa cells. The class given is cell-based, human. The note with it: for effect of inhibitor on degradation of HLA-A2.1 heavy chains: MARCH-IV and HLA-A2.1 co-transfected cells, concanamycin A 50 nM, lactacystin 20 μM. As for the experimental part: Metabolic labeling, immunoprecipitation and Western blotting. HeLa cells were grown to 80% confluency in 100 mm tissue culture dishes and transfected as above. Cells were incubated in serum-free and methionine-free medium for 30 minutes, and metabolically labeled with ^35S-cysteine/^35S-methionine (250 μCi, Amersham) for the indicated time. After labeling, cells were washed twice with PBS and either lysed immediately in PBS containing 1% Triton X-100 and protease inhibitors (Roche, Indianapolis, Ind.), or the label was chased with excess (2 mM) unlabeled cysteine and methionine in the presence or absence of specific inhibitors for the indicated time. The cell lysates were precleared with protein A/G agarose beads and incubated with 3 μg of antibody for one hour and followed by two hours incubation with protein A/G beads. Immunoprecipated proteins were washed five times with 0.1% Triton X-100 in PBS. All samples were boiled in SDS buffer and analyzed by SDS-PAGE gel electrophoresis. Where indicated, samples were treated with Endoglycosidase H (Roche) according to manufacturer's instructions. Briefly, samples were initially denatured at 100° C. in 40 μl of 0.3% SDS, 150 mM 2-mercaptoethanol, 50 mM sodium acetate, pH 5.5 and incubated with 4 milli-Units of Endo H overnight at 37° C. All samples were boiled in SDS buffer and analyzed by SDS-PAGE gel electrophoresis. Gels were fixed, dried and exposed to Kodak BioMax MR film. Western blotting was accomplished using the WesternBreeze Chemiluminescent Detection System (Invitrogen) following Semi-dry transfer to PVDF membranes (Millipore, Bedford, Mass.).
To determine the ultimate fate of the MHC I molecules in the presence of MARCH-IV, the maturation and turnover of co-transfected HLA-A2.1 in pulse-chase experiments (FIG. 12B) was followed. In the absence of MARCH-IV, HLA-A2.1 molecules acquired Endo H resistance after 1 hour of chase indicating exit from the ER. […]

Results on 2 compounds are retold here after patent US20050079613A1, “Downregulation of cell surface glycoproteins by a family of human ubiquitin ligases” (Oregon Health & Science University, priority 2002, published 2005).

Each structure is given as a SMILES string.

In the case of `C/C=C/[C@H]1O[C@@](O)([C@@H](C)[C@H](O)[C@H](C)[C@H]2OC(=O)/C(OC)=C/C(C)=C/[C@@H](C)[C@@H](O)[C@@H](CC)[C@@H](O)[C@H](C)C/C(C)=C/C=C/[C@@H]2OC)C[C@@H](O[C@H]2C[C@@H](O)[C@H](OC(N)=O)[C@@H](C)O2)[C@@H]1C` [concanamycin A], the “effect of inhibitor on degradation of HLA-A2.1 heavy chains” value is given as “delayed the degradation of HLA-A2.1”. Besides, the “effect of inhibitor on HLA-A2.1 in the absence of MARCH-IV” value (cells without MARCH-IV) is “no effect”.

In the case of `CC(=O)N[C@@H](CSC(=O)[C@]1([C@@H](O)C(C)C)NC(=O)[C@H](C)[C@@H]1O)C(=O)O` [lactacystin], the “effect of inhibitor on degradation of HLA-A2.1 heavy chains” value was “did not increase recovery of HLA-A2.1 heavy chains”.
